Patent publication US4548820A, “Xanthine compounds” (Adir, priority 1982, dated 1985)

Columns and labels:
[1] = system: effect produced in the guinea pig by a histamine aerosol; assay: Test of A. K. Armitage, histamine aerosol at 4%; type: in vivo; conditions: oral administration of 5 mg/kg
Description: When submitted to the test of A. K. Armitage, Brit J. Pharmacol. 17, 196, (1961), the compounds according to the invention administered by oral route at doses between 0.5 and 10 mg/kg, depending on the compounds, inhibit by 50% the effect produced in the guinea pig by a histamine aerosol at 4%. For certain of these compounds, the effect is still very strong 48 hours after oral administration.
By way of non-restricting example, the oral administration of 5 mg/kg of the compound of example 1, inhibits for more than 48 hours the broncho-spasm caused be a histamine aerosol at 4%. In addition, a reduction of the anaphylactic cutaneous reaction is observed in the rat after a single administration of 20 mg/kg per os of this compound.

A 1 receptors = molecular target: T1, A 1 receptors (Homo sapiens, UniProt P30542); assay: Purinergic A 1 receptors; type: binding
T1 sequence (P30542 1-326): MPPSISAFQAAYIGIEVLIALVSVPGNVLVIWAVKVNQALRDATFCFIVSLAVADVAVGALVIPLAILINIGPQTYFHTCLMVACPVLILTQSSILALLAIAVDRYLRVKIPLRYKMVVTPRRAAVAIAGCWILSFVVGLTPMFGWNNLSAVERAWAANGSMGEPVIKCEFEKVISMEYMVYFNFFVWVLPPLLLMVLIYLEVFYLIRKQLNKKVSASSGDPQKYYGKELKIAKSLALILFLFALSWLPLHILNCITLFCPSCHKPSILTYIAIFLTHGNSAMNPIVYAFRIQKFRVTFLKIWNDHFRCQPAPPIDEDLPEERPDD

IC50 (A 1 receptors): > 100 µM
SMILES: CC(C)Cn1c(=O)n(C)c(=O)c2[nH]c(CCN3CCN(C(c4ccccc4)c4ccccc4)CC3)nc21 [Example 1, 1-methyl-3-isobutyl-8-[2-(4-diphenylmethyl-piperazinyl)ethyl]xanthine]
duration of inhibition of the broncho-spasm caused by a histamine aerosol at 4% [1]: more than 48 hours
